Measurements reported in BindingDB's records for doi:10.1021/jm970389+ (Abbott Laboratories, 1998).

test: Binding potency against Platelet activating factor (PAF) receptor using [3H]C18-PAF as radioligand on rabbit platelet membranes

`Cc1nc2cnccc2n1Cc1ccc(C(=O)c2cn(C(=O)N(C)C)c3cccc(F)c23)cc1` [4-Fluoro-3-[4-(2-methyl-imidazo[4,5-c]pyridin-1-ylmethyl)-benzoyl]-indole-1-carboxylic acid dimethylamide] and `Cc1nc2cnccc2n1Cc1ccc(C(=O)c2cn(C(=O)N(C)C)c3cccc(Cl)c23)cc1` [4-Chloro-3-[4-(2-methyl-imidazo[4,5-c]pyridin-1-ylmethyl)-benzoyl]-indole-1-carboxylic acid dimethylamide] are within 1.5-fold of each other in Ki: 5.1 nM for the first, 5.4 nM for the second.

First: COC(=O)c1cccc2c1c(C(=O)c1ccc(Cn3c(C)nc4cnccc43)cc1)cn2S(=O)(=O)N(C)C [1-Dimethylsulfamoyl-3-[4-(2-methyl-imidazo[4,5-c]pyridin-1-ylmethyl)-benzoyl]-1H-indole-4-carboxylic acid methyl ester]
Second: COC(=O)c1cccc2c1c(C(=O)c1ccc(Cn3c(C)nc4cnccc43)cc1)cn2S(=O)(=O)C(C)C [3-[4-(2-Methyl-imidazo[4,5-c]pyridin-1-ylmethyl)-benzoyl]-1-(propane-2-sulfonyl)-1H-indole-4-carboxylic acid methyl ester]
The Ki of the first is 23-fold higher: 4.3 nM for the first, 0.19 nM for the second. The second binds more tightly here.

Going from `COC(=O)c1cccc2c1c(C(=O)c1ccc(Cn3c(C)nc4cnccc43)cc1)cn2C(=O)N1CCCC1` [3-[4-(2-Methyl-imidazo[4,5-c]pyridin-1-ylmethyl)-benzoyl]-1-(pyrrolidine-1-carbonyl)-1H-indole-4-carboxylic acid methyl ester] to `COC(=O)c1cccc2c1c(C(=O)c1ccc(Cn3c(C)nc4cnccc43)cc1)cn2C(N)=O` [1-Carbamoyl-3-[4-(2-methyl-imidazo[4,5-c]pyridin-1-ylmethyl)-benzoyl]-1H-indole-4-carboxylic acid methyl ester], the Ki falls from 11 nM to 1.5 nM (7.3-fold). The second binds more tightly here.

Going from `COC(=O)c1cccc2c1c(C(=O)c1ccc(Cn3c(C)nc4ncccc43)cc1)cn2C(=O)N(C)C` [1-Dimethylcarbamoyl-3-[4-(2-methyl-imidazo[4,5-b]pyridin-1-ylmethyl)-benzoyl]-1H-indole-4-carboxylic acid methyl ester] to `COC(=O)c1cccc2c1c(C(=O)c1ccc(Cn3c(C)nc4c[n+]([O-])ccc43)cc1)cn2C(=O)N(C)C` [1-Dimethylcarbamoyl-3-[4-(2-methyl-5-oxy-imidazo[4,5-c]pyridin-1-ylmethyl)-benzoyl]-1H-indole-4-carboxylic acid methyl ester], the Ki rises from 2.9 nM to 23 nM (7.9-fold). The first binds more tightly here.

`CCOCCn1cc(C(=O)c2ccc(Cn3c(C)nc4cnccc43)cc2)c2c(C(=O)OC)cccc21` [1-(2-Ethoxy-ethyl)-3-[4-(2-methyl-imidazo[4,5-c]pyridin-1-ylmethyl)-benzoyl]-1H-indole-4-carboxylic acid methyl ester] and `COC(=O)c1cccc2c1c(C(=O)c1ccc(Cn3c(C)nc4cnccc43)cc1)cn2C(C)C` [1-Isopropyl-3-[4-(2-methyl-imidazo[4,5-c]pyridin-1-ylmethyl)-benzoyl]-1H-indole-4-carboxylic acid methyl ester] are within 1.5-fold of each other in Ki: 1.1 nM for the first, 1.3 nM for the second.

Compared with `COC(=O)c1cccc2c1c(C(=O)c1ccc(Cn3c(C)nc4c(C)nc(C)cc43)cc1)cn2C(=O)N(C)C` [1-Dimethylcarbamoyl-3-[4-(2,4,6-trimethyl-imidazo[4,5-c]pyridin-1-ylmethyl)-benzoyl]-1H-indole-4-carboxylic acid methyl ester], `COC(=O)c1cccc2c1c(C(=O)c1ccc(Cn3ccc4nc(C)nc-4c3)cc1)cn2C(=O)N(C)C` [1-Dimethylcarbamoyl-3-[4-(2-methyl-imidazo[4,5-c]pyridin-5-ylmethyl)-benzoyl]-1H-indole-4-carboxylic acid methyl ester] is higher in Ki: 120 nM for the first, greater than 1000 nM for the second.

`COC(=O)c1cccc2c1c(C(=O)CCCCn1c(C)nc3cnccc31)cn2C(=O)N(C)C` [1-Dimethylcarbamoyl-3-[5-(2-methyl-imidazo[4,5-c]pyridin-1-yl)-pentanoyl]-1H-indole-4-carboxylic acid methyl ester] and `COC(=O)c1cccc2c1c(C(=O)CCCCCCn1c(C)nc3cnccc31)cn2C(=O)N(C)C` [1-Dimethylcarbamoyl-3-[7-(2-methyl-imidazo[4,5-c]pyridin-1-yl)-heptanoyl]-1H-indole-4-carboxylic acid methyl ester] are within 1.5-fold of each other in Ki: 11 nM for the first, 9.4 nM for the second.

Compared with `CNC(=O)n1cc(C(=O)c2ccc(Cn3c(C)nc4cnccc43)cc2)c2c(C(=O)OC)cccc21` [1-Methylcarbamoyl-3-[4-(2-methyl-imidazo[4,5-c]pyridin-1-ylmethyl)-benzoyl]-1H-indole-4-carboxylic acid methyl ester], `Cc1nc2cnccc2n1Cc1ccc(C(=O)c2cn(C(=O)N(C)C)c3cccc(Br)c23)cc1` [4-Bromo-3-[4-(2-methyl-imidazo[4,5-c]pyridin-1-ylmethyl)-benzoyl]-indole-1-carboxylic acid dimethylamide] is 7.3-fold higher in Ki: 1.5 nM for the first, 11 nM for the second. The first binds more tightly here.

First: COC(=O)c1cc(C#Cc2ccccc2)cc2c1c(C(=O)c1ccc(Cn3c(C)nc4cnccc43)cc1)cn2C(=O)N(C)C [1-Dimethylcarbamoyl-3-[4-(2-methyl-imidazo[4,5-c]pyridin-1-ylmethyl)-benzoyl]-6-phenylethynyl-1H-indole-4-carboxylic acid methyl ester]
Second: COC(=O)c1cc(-c2ccc(F)cc2)cc2c1c(C(=O)c1ccc(Cn3c(C)nc4cnccc43)cc1)cn2C(=O)N(C)C [1-Dimethylcarbamoyl-6-(4-fluoro-phenyl)-3-[4-(2-methyl-imidazo[4,5-c]pyridin-1-ylmethyl)-benzoyl]-1H-indole-4-carboxylic acid methyl ester]
The Ki of the first is 6.3-fold higher: 0.95 nM for the first, 0.15 nM for the second. The second binds more tightly here.

First: COC(=O)c1cccc2c1c(C(=O)c1ccc(Cn3c(C)nc4cnccc43)s1)cn2C(=O)N(C)C [1-Dimethylcarbamoyl-3-[5-(2-methyl-imidazo[4,5-c]pyridin-1-ylmethyl)-thiophene-2-carbonyl]-1H-indole-4-carboxylic acid methyl ester]
Second: COC(=O)c1cccc2c1c(S(=O)(=O)c1ccc(Cn3c(C)nc4cnccc43)cc1)cn2C(=O)N(C)C [1-Dimethylcarbamoyl-3-[4-(2-methyl-imidazo[4,5-c]pyridin-1-ylmethyl)-benzenesulfonyl]-1H-indole-4-carboxylic acid methyl ester]
The Ki of the first is 1.6-fold lower: 8.2 nM for the first, 13 nM for the second. The first binds more tightly here.

Compared with `Cc1nc2cnccc2n1Cc1ccc(C(=O)c2cn(C(=O)N(C)C)c3cccc(OC(=O)N(C)C)c23)cc1` [Dimethyl-carbamic acid 1-dimethylcarbamoyl-3-[4-(2-methyl-imidazo[4,5-c]pyridin-1-ylmethyl)-benzoyl]-1H-indol-4-yl ester], `COC(=O)c1[nH]c2cccc(OC)c2c1C(=O)c1ccc(Cn2c(C)nc3cnccc32)cc1` [4-Methoxy-3-[4-(2-methyl-imidazo[4,5-c]pyridin-1-ylmethyl)-benzoyl]-1H-indole-2-carboxylic acid methyl ester] is 7.1-fold lower in Ki: 3.6 nM for the first, 0.51 nM for the second. The second binds more tightly here.

First: C#Cc1cccc2c1c(C(=O)c1ccc(Cn3c(C)nc4cnccc43)c(F)c1)cn2C(=O)NC [4-Ethynyl-3-[3-fluoro-4-(2-methyl-imidazo[4,5-c]pyridin-1-ylmethyl)-benzoyl]-indole-1-carboxylic acid methylamide]
Second: Cc1nc2cnccc2n1Cc1csc(C(=O)c2cn(C(=O)N(C)C)c3cc(-c4ccc(F)cc4)ccc23)n1 [6-(4-Fluoro-phenyl)-3-[4-(2-methyl-imidazo[4,5-c]pyridin-1-ylmethyl)-thiazole-2-carbonyl]-indole-1-carboxylic acid dimethylamide]
The Ki of the first is 62-fold lower: 0.63 nM for the first, 39 nM for the second. The first binds more tightly here.
